Test results published in PubChem BioAssay AID1963845 (Molecular Pharmacology Branch, DTP, NCI, 2024).

Test system: 429239-143-T-J1-PDC complex spheroid viability
Assay: Anticancer human tumor 429239-143-T-J1-PDC patient-derived small cell lung carcinoma cell line growth inhibition [POLQ]
Settings: for IC50: curve of first compound; for viability, T/C: stronger effect = lower value
Procedure, shortened: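 PDC + HUVEC + MSC complex spheroids; POLQ inhibitors ± partner drugs; top conc. at/near clinical Cmax, else 10 microM (SN-38 1 microM), half-log dilutions; 37 degrees C, 5% CO2.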

[1] = second compound 0.0316 µM, first compound 0.0316 µM
[2] = second compound 0.0316 µM, first compound 0.1 µM
[3] = second compound 0.0316 µM, first compound 0.316 µM
[4] = second compound 0.0316 µM, first compound 1 µM
[5] = second compound 0.0316 µM, first compound 3.16 µM
[6] = second compound 0.0316 µM, first compound 10 µM
[7] = second compound 0.1 µM, first compound 0.0316 µM
[8] = second compound 0.1 µM, first compound 0.1 µM
[9] = second compound 0.1 µM, first compound 0.316 µM
[10] = second compound 0.1 µM, first compound 1 µM
[11] = second compound 0.1 µM, first compound 3.16 µM
[12] = second compound 0.1 µM, first compound 10 µM
[13] = second compound 0.316 µM, first compound 0.0316 µM
[14] = second compound 0.316 µM, first compound 0.1 µM
[15] = second compound 0.316 µM, first compound 0.316 µM
[16] = second compound 0.316 µM, first compound 1 µM
[17] = second compound 0.316 µM, first compound 3.16 µM
[18] = second compound 0.316 µM, first compound 10 µM
[19] = second compound 1 µM, first compound 0.0316 µM
[20] = second compound 1 µM, first compound 0.1 µM
[21] = second compound 1 µM, first compound 0.316 µM
[22] = second compound 1 µM, first compound 1 µM
[23] = second compound 1 µM, first compound 3.16 µM
[24] = second compound 1 µM, first compound 10 µM
[25] = second compound 3.16 µM, first compound 0.0316 µM
[26] = second compound 3.16 µM, first compound 0.1 µM
[27] = second compound 3.16 µM, first compound 0.316 µM
[28] = second compound 3.16 µM, first compound 1 µM
[29] = second compound 3.16 µM, first compound 3.16 µM
[30] = second compound 3.16 µM, first compound 10 µM
[31] = second compound 10 µM, first compound 0.0316 µM
[32] = second compound 10 µM, first compound 0.1 µM
[33] = second compound 10 µM, first compound 0.316 µM
[34] = second compound 10 µM, first compound 1 µM
[35] = second compound 10 µM, first compound 3.16 µM
[36] = second compound 10 µM, first compound 10 µM
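Further: luminescence signal used as surrogate measure of viable cells; spheroids exposed to compounds for seven days before readout.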
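Wherever viability, T/C is given: 100% = DMSO vehicle control viability as luminescence relative to vehicle.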

Structure (SMILES): COc1cc2cc(C(=O)CCC(=O)O)sc2cc1OC + Nc1ccc(C#CCN(C(=O)Cc2ncc(C(F)(F)F)cc2C(F)(F)F)c2ccc(F)cc2)nn1
- IC50 (second compound 0.0316 µM): > 10000 nM
- IC50 (second compound 0.1 µM): > 10000 nM
- IC50 (second compound 0.316 µM): > 10000 nM
- IC50 (second compound 1 µM): > 10000 nM
- IC50 (second compound 3.16 µM): > 10000 nM
- IC50 (second compound 10 µM): > 10000 nM
- viability, T/C [1]: 90.4%
- viability, T/C [2]: 108%
- viability, T/C [3]: 89.8%
- viability, T/C [4]: 107%
- viability, T/C [5]: 106%
- viability, T/C [6]: 119%
- viability, T/C [7]: 106%
- viability, T/C [8]: 113%
- viability, T/C [9]: 101%
- viability, T/C [10]: 106%
- viability, T/C [11]: 103%
- viability, T/C [12]: 97.4%
- viability, T/C [13]: 105%
- viability, T/C [14]: 109%
- viability, T/C [15]: 96.8%
- viability, T/C [16]: 117%
- viability, T/C [17]: 95.4%
- viability, T/C [18]: 101%
- viability, T/C [19]: 105%
- viability, T/C [20]: 106%
- viability, T/C [21]: 94.8%
- viability, T/C [22]: 97.9%
- viability, T/C [23]: 100%
- viability, T/C [24]: 105%
- viability, T/C [25]: 97%
- viability, T/C [26]: 107%
- viability, T/C [27]: 103%
- viability, T/C [28]: 104%
- viability, T/C [29]: 94.9%
- viability, T/C [30]: 99.8%
- viability, T/C [31]: 96.9%
- viability, T/C [32]: 105%
- viability, T/C [33]: 108%
- viability, T/C [34]: 98.2%
- viability, T/C [35]: 99.9%
- viability, T/C [36]: 98.3%

Structure (SMILES): COc1ccc([C@@H](O)c2cc(-c3ncnc4cc(N5CCOCC5)ccc34)c(F)cc2Cl)nn1 + Cc1cccc(N(C)C(=O)C2C(O)CCN2c2nc(C)cc(C(F)(F)F)c2C#N)c1
- IC50 (second compound 0.0316 µM): 3250 nM
- IC50 (second compound 0.1 µM): 2790 nM
- IC50 (second compound 0.316 µM): 2480 nM
- IC50 (second compound 1 µM): 3320 nM
- IC50 (second compound 3.16 µM): 2880 nM
- IC50 (second compound 10 µM): 2490 nM
- viability, T/C [1]: 103%
- viability, T/C [2]: 95.7%
- viability, T/C [3]: 94.4%
- viability, T/C [4]: 70.4%
- viability, T/C [5]: 53.5%
- viability, T/C [6]: 10.8%
- viability, T/C [7]: 101%
- viability, T/C [8]: 107%
- viability, T/C [9]: 106%
- viability, T/C [10]: 80.7%
- viability, T/C [11]: 47.3%
- viability, T/C [12]: 9.36%
- viability, T/C [13]: 105%
- viability, T/C [14]: 94.5%
- viability, T/C [15]: 102%
- viability, T/C [16]: 90.1%
- viability, T/C [17]: 39.2%
- viability, T/C [18]: 14.3%
- viability, T/C [19]: 105%
- viability, T/C [20]: 95.9%
- viability, T/C [21]: 98.7%
- viability, T/C [22]: 82.3%
- viability, T/C [23]: 51.9%
- viability, T/C [24]: 9.82%
- viability, T/C [25]: 99.5%
- viability, T/C [26]: 98.8%
- viability, T/C [27]: 97.2%
- viability, T/C [28]: 79.5%
- viability, T/C [29]: 47.7%
- viability, T/C [30]: 8.69%
- viability, T/C [31]: 122%
- viability, T/C [32]: 86.7%
- viability, T/C [33]: 89.5%
- viability, T/C [34]: 64.3%
- viability, T/C [35]: 57.1%
- viability, T/C [36]: 8.38%

Structure (SMILES): C=CCn1c(=O)c2cnc(Nc3ccc(N4CCN(C)CC4)cc3)nc2n1-c1cccc(C(C)(C)O)n1 + Cc1cccc(N(C)C(=O)C2C(O)CCN2c2nc(C)cc(C(F)(F)F)c2C#N)c1
- IC50 (second compound 0.0316 µM): 644 nM
- IC50 (second compound 0.1 µM): 637 nM
- IC50 (second compound 0.316 µM): 593 nM
- IC50 (second compound 1 µM): 587 nM
- IC50 (second compound 3.16 µM): 609 nM
- IC50 (second compound 10 µM): 642 nM
- viability, T/C (second compound 0.0316 µM, first compound 0.00316 µM): 106%
- viability, T/C (second compound 0.0316 µM, first compound 0.01 µM): 110%
- viability, T/C [1]: 103%
- viability, T/C [2]: 95.1%
- viability, T/C [3]: 103%
- viability, T/C [4]: 17%
- viability, T/C (second compound 0.1 µM, first compound 0.00316 µM): 105%
- viability, T/C (second compound 0.1 µM, first compound 0.01 µM): 105%
- viability, T/C [7]: 97.5%
- viability, T/C [8]: 102%
- viability, T/C [9]: 103%
- viability, T/C [10]: 16.1%
- viability, T/C (second compound 0.316 µM, first compound 0.00316 µM): 109%
- viability, T/C (second compound 0.316 µM, first compound 0.01 µM): 106%
- viability, T/C [13]: 106%
- viability, T/C [14]: 116%
- viability, T/C [15]: 91.1%
- viability, T/C [16]: 16.1%
- viability, T/C (second compound 1 µM, first compound 0.00316 µM): 107%
- viability, T/C (second compound 1 µM, first compound 0.01 µM): 100%
- viability, T/C [19]: 103%
- viability, T/C [20]: 111%
- viability, T/C [21]: 89.6%
- viability, T/C [22]: 16%
- viability, T/C (second compound 3.16 µM, first compound 0.00316 µM): 108%
- viability, T/C (second compound 3.16 µM, first compound 0.01 µM): 102%
- viability, T/C [25]: 97.7%
- viability, T/C [26]: 111%
- viability, T/C [27]: 93.3%
- viability, T/C [28]: 16.7%
- viability, T/C (second compound 10 µM, first compound 0.00316 µM): 118%
- viability, T/C (second compound 10 µM, first compound 0.01 µM): 113%
- viability, T/C [31]: 113%
- viability, T/C [32]: 100%
- viability, T/C [33]: 104%
- viability, T/C [34]: 16.6%
